Assay results as given in the COVID Moonshot data (paper PMC7615835).
“And” between values parts separate entries of the source, which are not always exact repeats. Equal entries are not always repeated.

These molecules were tested against SARS-CoV-2 Main Protease (SARS-CoV-2) (UniProt P0DTD1).
In the case of `Cc1ccncc1NC(=O)CN1CCCCC1`, the IC50 is reported as over 99.5 µM. With `C=CC(=O)N(c1ccc(C(F)(F)F)cc1)C(C(=O)NCCc1cccc(F)c1)c1cncc(C#N)c1` (stereo not given) the IC50 was 11.1 µM. Work on `CCOC(=O)c1nc(S(C)(=O)=O)ncc1Cl` yielded an IC50 of 1.6 µM. Work on `O=C(Cc1cccc(Cl)c1)N1Cc2ccccc2C(O)C1` (stereo not given) yielded an IC50 of 14.8 µM. `C=CC(=O)N1CCN(S(=O)(=O)c2cccc(F)c2)CC1` showed an IC50 of over 99.5 µM. `N#Cc1nccc(Cl)n1` was tested, and the IC50 was over 99.5 µM. In the case of `O=C(NCCc1cccc(F)c1)C(c1cccnc1)N(C(=O)c1cocn1)c1ccc(N2CCCS2(=O)=O)cc1` (stereo not given), the IC50 is reported as 27.8 µM. In the case of `O=C(CN(C(=O)Cn1nnc2ccccc21)c1ccc(-c2ccccc2)cc1)N1CCNCC1`, the IC50 is reported as over 99.5 µM. `N#CC1(CS(=O)(=O)N2Cc3ccc(Cl)cc3C3(CCN(c4cncc5c4CCCC5)C3=O)C2)CC1` (stereo not given) gave an IC50 of 0.515 µM. In the case of `Cc1nn(C)c2[nH]nc(NC(=O)Cc3cccc(Cl)c3)c12`, the IC50 is reported as over 99.5 µM. Work on `O=C1NCC(C(=O)Nc2cnn3c2CCCC3)c2cc(Cl)ccc21` (stereo not given) yielded an IC50 of 30.5 µM. Work on `Cn1c(=O)c2cc(C(=O)N(c3ccc(C(C)(C)C)cc3)C(C(=O)NCCc3cccc(F)c3)c3cccnc3)n(C)c2n(C)c1=O` (stereo not given) yielded an IC50 of over 99.5 µM. Work on `CC(NCc1cnc2ccccn12)c1nnc2ccccn12` (stereo not given) yielded an IC50 of over 99.5 µM. `Clc1ccc2c(c1)C1(CCO2)CCN(c2cncc3ccccc23)C1` (stereo not given) showed an IC50 of over 99.5 µM. Molecule `O=C(Nc1ccc(N(C(=O)c2cocn2)C(C(=O)NCCc2cccc(F)c2)c2cccnc2)cc1)NC1CC1` (stereo not given) has an IC50 of over 99.5 µM. `O=C(NCCc1cccc(F)c1)C(c1cccnc1)N(C(=O)c1cnc[nH]1)c1ccc(OC(F)F)cc1` (stereo not given) showed an IC50 of 22.1 µM. Work on `CC(NC(=O)CCl)c1cc(F)cc(Cl)c1` (stereo not given) yielded an IC50 of 27.9 µM. `NS(=O)(=O)c1cc(CN2CCN(C(c3ccccc3)c3ccccc3)CC2)co1` was tested, and the IC50 was over 99.5 µM. Molecule `O=C(C[C@@]1(C(=O)Nc2cncc3ccccc23)CCOc2ccc(Cl)cc21)N1CCN(C2CCOC2)CC1` (stereo in doubt) has an IC50 of 46.5 µM. In the case of `COC(OC)C(=O)N1CCN(Cc2cccc(Cl)c2)CC1`, the IC50 is reported as 93.9 µM and 94.3 µM. In the case of `O=C1CC(NC(=O)Cc2cccc(Cl)c2)C(=O)N1` (stereo not given), the IC50 is reported as over 99.5 µM. Molecule `COc1ccc2c(NC(=O)C3CCOc4ccc(Cl)cc43)noc2c1` (stereo not given) has an IC50 of 61.5 µM. For `CC(C)(C)N(Cc1ccccc1)c1cc(Cl)cc(CC(=O)Nc2cncc3ccccc23)c1`, the IC50 was 1.91 µM. In the case of `O=C(Cc1cc(Cl)cc(Nc2ccc(OCc3ccccc3)cc2)c1)Nc1cncc2ccccc12`, the IC50 is reported as 8.23 µM. With `O=C(Cc1cc(Cl)cc(Nc2ccc(F)cc2C(F)(F)F)c1)Nc1cncc2ccccc12` the IC50 was 1.56 µM. With `Cc1c(Cl)cccc1S(=O)(=O)N(Cc1ccc(F)cc1)c1ccc2[nH]c(=O)[nH]c2c1` the IC50 was over 99.5 µM. Molecule `CC(C)(C)c1ccc(N(C(=O)c2cocn2)C(C(=O)NC2CCOC2)c2cccnc2)cc1` (stereo not given) has an IC50 of 2.77 µM. For `CC(C)(C)c1ccc(N(C(=O)c2[nH]nc(O)c2CCO)C(C(=O)NCCc2cccc(F)c2)c2cccnc2)cc1` (stereo not given), the IC50 was over 99.5 µM. Work on `COCc1ccc2cncc(NC(=O)Cc3cccc(Cl)c3)c2c1` yielded an IC50 of 2.21 µM. `CNC(=O)CN1CC2(CCN(c3cncc4cccc(Cl)c34)C2=O)c2cc(Cl)ccc2C1=O` (stereo not given) showed an IC50 of 1.67 µM. `COc1cc(N(C(=O)c2cocn2)C(C(=O)NCCc2cccc(F)c2)c2cccnc2)ccc1S(=O)(=O)N(C)C` (stereo not given) gave an IC50 of over 99.5 µM. For `O=C(Cc1cc(Cl)cc(Nc2cccc(N3CCOCC3)c2)c1)Nc1cncc2ccccc12`, the IC50 was 2.44 µM. `COc1ccccc1OCCNC(=O)c1cc(=O)ccn1C` was tested, and the IC50 was over 99.5 µM. Molecule `CN(Cc1nc2ccccc2s1)C(=O)c1ccc2c(c1)nnn2C` has an IC50 of over 99.5 µM. With `N#CC1(CS(=O)(=O)N2Cc3ccc(Cl)cc3C(C(=O)Nc3cncc4ccccc34)C2)CCOCC1` (stereo not given) the IC50 was 0.0804 µM and 0.0971 µM and 0.17 µM. `CC(C)(C)NC(=O)CN1CC(C(=O)Nc2cncc3cc(S(C)(=O)=O)ccc23)c2cc(Cl)ccc2C1=O` (stereo not given) showed an IC50 of 0.248 µM. In the case of `N#CC1(CS(=O)(=O)N2Cc3ccc(Cl)cc3C3(CCN(c4cncc5ccc(Cl)cc45)C3=O)C2)CC1` (stereo not given), the IC50 is reported as 0.82 µM. With `O=C(Cc1cc(Cl)cc(Oc2cccnc2)c1)Nc1cncc2ccccc12` the IC50 was 1.14 µM and 1.57 µM and 1.17 µM. Molecule `CC(=O)N1CCc2ccc(Cl)cc2C1C(=O)Nc1cncc2ccccc12` (stereo not given) has an IC50 of 2.85 µM. In the case of `COc1ccc(NC(=O)[C@@H]2CN(C(=O)CCl)CCN2S(=O)(=O)c2ccsc2)cc1` (stereo in doubt), the IC50 is reported as 0.45 µM. Work on `O=C(Nc1ccccc1)[C@H]1CN(C(=O)CCl)CCN1S(=O)(=O)c1ccsc1` (stereo in doubt) yielded an IC50 of 0.386 µM. `O=C(CC1(C(=O)Nc2cncc3ccccc23)CCOc2ccc(Cl)cc21)N1CCN(C2CCOC2)CC1` (stereo not given) showed an IC50 of 6.68 µM. For `C=CC(=O)NCC(=O)N(CCN1CCOCC1)Cc1sccc1Br`, the IC50 was over 99.5 µM. Work on `O=C(Cc1cc(Cl)cc(Nc2cc(Cl)ccc2Br)c1)Nc1cncc2ccccc12` yielded an IC50 of 2.1 µM. With `O=CC(=O)N1CCN(Cc2cccc(Cl)c2)CC1` the IC50 was 56.6 µM and 49.6 µM. For `COc1ccc(CC(=O)Nc2cncc3ccccc23)cc1`, the IC50 was 72.5 µM. `CC(C)NC(=O)CN1CC(C(=O)Nc2cncc3ccccc23)c2cc(Cl)ccc2C1=O` (stereo not given) was tested, and the IC50 was 0.389 µM. For `CNC(=O)c1cc(Cl)cc(CC(=O)Nc2cnccc2C)c1`, the IC50 was 46.3 µM and 57.3 µM. `O=C(Cc1cccc(Cl)c1)Nc1cncc2nccnc12` was tested, and the IC50 was 76 µM. In the case of `O=C(NCCc1cccc(F)c1)C(c1cccnc1)N(C(=O)c1cnc[nH]1)C1CCC2(CCO2)CC1` (stereo not given), the IC50 is reported as over 99 µM.
